# According to patent US20230279072A1, “REGULATORY T CELL EPITOPES” (EpiVax Inc., priority 2020, published 2023):
# Entries after “also recorded” stand apart in the source; their conditions may differ.
# Columns and labels:
# HLA DRB1*0401 = HLA DRB1*0401 (Homo sapiens, UniProt P01903+P01911, A100K/A169T/F76Y/I96L/K127E/L162R/M171V/N62H/P40V/Q125Y/R42H/S133A/S149N/S66Y/V115G/V209L/W38E); experiment: HLA DRB1 (IC50) | *0401
# HLA DRB1*0701 = HLA DRB1*0701 (Homo sapiens, UniProt P01903+P01911, A100R/A102G/A103Q/D57E/D86V/E43K/F76Y/K127E/L162R/M171V/P40G/Q125H/Q99D/R33Q/R42Y/R54Q/S133A/S66F/T210M/V115G/Y107V/Y59L/Y89S); experiment: HLA DRB1 (IC50) | *0701
# HLA DRB1*1101 = HLA DRB1*1101 (Homo sapiens, UniProt P01903+P01911, A100R/A169T/A87E/I96F/K41T/L162R/M171V/P40S/Q125H/Q178H/Q39Y/Q99D/R42S/S66Y/T262R/V115G/W38E); experiment: HLA DRB1 (IC50) | *1101
# [1] = test system: HLA-DRB1*0101, *0301, *0401, *0701, *1101, *1301 and *1501 alleles; experiment: In vitro HLA DRB1 binding assay, panel of seven alleles; set-up: species or system human
# Procedure: The six FV peptides were tested for in vitro binding to HLA-DRB1*0101, *0301, *0401, *0701, *1101, *1301 and *1501 alleles.
# [2] = test system: CD4+CD25+FoxP3+ regulatory T cells; format: cell-based, human
# [3] = test system: CD4+ effector memory T cells; experiment: Suppression of Tetanus Toxoid stimulated CD4+ effector T cells in PBMC; format: cell-based, human
# Procedure: Previously harvested and frozen PBMC were thawed and suspended in conditioned chRPMI (3.3×10^6 cells/mL) by conventional means. Cells were stained with CFSE (Cat #: 65-0850-84, Affymetrix, Santa Clara, Calif.) and plated at 300,000 cells per well. Plates were incubated overnight (37° C. in 5% CO2). […] Previous titration experiments performed at EpiVax (EpiVax, Providence, R.I.) have established that stimulation with 0.5 μg/ml Tetanus Toxoid (TT) (Astarte Biologics, Bothell, Wash.) elicits a measurable CD4+ effector memory T cells response in PBMC drawn from healthy control donors (Rhode Island Blood Center, Providence, R.I.). Tetanus Toxoid stock (100 μg/mL) (Astarte Biologics, Bothell, Wash.) was diluted in conditioned chRPMI yielding a working concentration of 1 ug/mL. […] All plates were then incubated for six additional days. On assay day five, 100 μL of supernatant was removed from each well and replaced with freshly conditioned chRPMI.
# On assay day seven, cells were removed from incubation. Cells were labeled for live/dead discrimination, for surface markers CD127, CCR7, CD4, CD45RA, and CD25 and for intracellular FoxP3. Stained cells were further prepared for FACS analysis by conventional means. Cells were first gated to eliminate aggregates and dead cells. Live cells were gated for CD4 T cells and all subsequent analysis was done on this population. The activated Teffector population was identified as the CD4+/CD25-high/FoxP3-intermediate (CD4+/CD25^1/FoxP3int) (FIG. 8A).
# Proliferation of CD4+/CD25-high (CD4^+/CD25^hi) T cells was estimated from the dilution of the CFSE stain (Cat #: 65-0850-84, Affymetrix, Santa Clara, Calif.) and % proliferation determined by the CFSE-low (CFSEL^lo) population (FIG. 8B).
# [4] = test system: CD4+ T cells in PBMCs from healthy donors; experiment: Tetanus Toxoid Bystander Suppression Assay (TTBSA); format: cell-based, human
# human DR molecules = conditions: cited from earlier work
# [5] = test system: PBMCs from lupus patients; conditions: cited from earlier work
# Sequence of HLA DRB1*1101 (P01903 26-254 limits assumed, other chains not shown): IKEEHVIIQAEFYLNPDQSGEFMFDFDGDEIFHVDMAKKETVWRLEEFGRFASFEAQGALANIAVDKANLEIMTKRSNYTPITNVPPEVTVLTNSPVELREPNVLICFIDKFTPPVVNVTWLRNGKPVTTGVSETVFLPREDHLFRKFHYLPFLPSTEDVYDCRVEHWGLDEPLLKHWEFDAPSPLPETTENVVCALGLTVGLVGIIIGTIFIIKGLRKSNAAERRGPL
compound,measurement,setting,value
"CC[C@H](C)[C@H](NC(=O)[C@@H](NC(=O)[C@H](CC(C)C)NC(=O)[C@@H](NC(=O)[C@H](Cc1ccccc1)NC(=O)[C@H](CC(=O)O)NC(=O)[C@@H](NC(=O)CN)[C@@H](C)O)[C@@H](C)O)[C@@H](C)O)C(=O)N[C@@H](CO)C(=O)N[C@@H](CO)C(=O)N[C@@H](CC(C)C)C(=O)N[C@@H](CCC(N)=O)C(=O)N1CCC[C@H]1C(=O)N[C@@H](CCC(=O)O)C(=O)N[C@@H](CC(=O)O)C(=O)O [SEQ ID NO: 117 | Tregitope 084, GTDFTLTISSLQPED]",IC50,HLA DRB1*0401,< 1 µM
same,IC50,HLA DRB1*0701,< 1 µM
same,IC50,HLA DRB1*1101,100 µM
CC[C@H](C)[C@H](NC(=O)[C@H](CO)NC(=O)[C@H](Cc1ccc(O)cc1)NC(=O)[C@@H]1CCCN1C(=O)[C@H](CCCNC(=N)N)NC(=O)[C@H](CO)NC(=O)[C@H](C)NC(=O)[C@H](CCSC)NC(=O)[C@H](CC(N)=O)NC(=O)[C@H](CCCCN)NC(=O)[C@H](Cc1ccccc1)NC(=O)[C@@H](NC(=O)[C@@H](NC(=O)[C@H](CCCCN)NC(C)=O)[C@@H](C)CC)C(C)C)C(=O)N[C@@H](Cc1ccc(O)cc1)C(N)=O [SEQ ID NO: 3],binding affinity to HLA DR alleles (in words),[1]; across the alleles tested,strong affinity
same,breadth of binding to HLA DRB1 alleles,"[1]; seven alleles, listed as FV432",binding to nearly all of the HLA DRB1 alleles tested; also recorded: bind to multiple HLA DRB1 alleles
same,relative proportion of highly proliferative regulatory T cells (CFSE low FoxP3+) among CD25+ Granzyme B+ CD4+ T cells,[2],no significant effect
same,activated (CD25 high) proliferating (CFSE low) CD4 T cells stimulated by Tetanus Toxoid,[3],no significant inhibitory effect
same,activated effector CD4+ T cells (CD4+/CD25-high/FoxP3-intermediate) reacting to Tetanus Toxoid,[3],no appreciable effect
same,proliferation of CD4− cells,[3]; FIG. 11,little inhibitory effect
same,proliferation of total CD4+ T cells (CFSE low),"[3]; donor 114, dose-dependent",little to no effect
same,inhibition of the CD4+ T memory response / T effector proliferation in the TTBSA,[4],did not inhibit
"RIHMVYSKRSGKPRGYAFIEY (listed as Homo sapiens) [peptide 131-151, residues 131-151 of the spliceosome protein]",binding to human DR molecules,human DR molecules,binds to a large panel of human DR molecules
same,randomly selected lupus patients whose PBMCs contain T cells that proliferate in response to the peptide,[5],40%
